These molecules were tested against T1, SARS-CoV-2 main protease (M^pro) (Severe acute respiratory syndrome coronavirus 2, UniProt P0DTD1) (assay: protein-observed mass spectrometry (POMS) under denaturing conditions, number of covalent reactions). Details: 40 μM compound, 2 μM M^pro, 20 mM HEPES, pH 7.5, 50 mM NaCl; covalent reactions with M^pro.
Assay type: binding

Compound	Apparent max. no. of reactions	most dominant no. of reactions
CC(C)CCn1sc2ccc(Br)cc2c1=O [Compound 4d]	2	0
O=c1c2cccc(-c3ccccc3)c2sn1-c1ccccc1 [Compound 3d]	completely prevents irreversible covalent reaction	–
O=c1[nH]sc2ccccc12 [Compound 2]	6	2
COCCn1sc2ccccc2c1=O [Compound 10]	5	2
O=c1c2cccc(Br)c2sn1-c1ccccc1 [Compound 3c]	completely prevents irreversible covalent reaction	–
O=c1c2ccccc2sn1CC1CCCCC1 [Compound 6]	6	4
CC(C)CCn1sc2c(Br)cccc2c1=O [Compound 4c]	completely prevents irreversible covalent reaction	–
O=c1c2ccccc2sn1Cc1ccccc1 [Compound 5]	6	4
Cc1cccc2c(=O)n(-c3ccccc3)sc12 [Compound 3b]	1	0
O=c1c2ccccc2sn1-c1ccccn1 [Compound 8]	6	2
O=c1c2ccccc2[se]n1-c1ccccc1 [Compound 1, ebselen, reference compound]	12/12	12/12
CC(C)CCn1sc2ccccc2c1=O [Compound 4a]	6	4
O=c1c2cnccc2sn1-c1ccccc1 [Compound 3f]	9	5
Cc1cccc2c(=O)n(CCC(C)C)sc12 [Compound 4b]	0	–
COC(=O)CCn1sc2ccccc2c1=O [Compound 11]	6	2
O=c1c2cc(Br)ccc2sn1-c1ccccc1 [Compound 3e]	–	1
CCCCCn1sc2ccccc2c1=O [Compound 7]	5	4
O=c1c2ccccc2sn1-c1ccccc1 [Compound 3a]	11/11	11/11

Same assay, conditions: 40 μM compound, 2 μM M^pro, 20 mM HEPES, pH 7.5, 50 mM NaCl; covalent reactions with M^pro; listed as 3 a

Compound	Apparent max. no. of reactions	most dominant no. of reactions
O=c1c2ccccc2sn1-c1ccccc1 [Compound 3a]	11	11

Same assay, conditions: 40 μM compound, 2 μM M^pro, 20 mM HEPES, pH 7.5, 50 mM NaCl; covalent reactions with M^pro; listed as 4 d

Compound	most dominant no. of reactions
CC(C)CCn1sc2ccc(Br)cc2c1=O [Compound 4d]	no reaction

Same assay, conditions: 40 μM compound, 2 μM M^pro, 20 mM HEPES, pH 7.5, 50 mM NaCl; covalent reactions with M^pro; listed as ebselen

Compound	Apparent max. no. of reactions
O=c1c2ccccc2[se]n1-c1ccccc1 [Compound 1, ebselen, reference compound]	up to 12

What follows are molecules tested against T1, SARS-CoV-2 main protease (M^pro) (assay: biochemical). Details: not given.

Compound	IC50
O=c1[nH]sc2ccccc12 [Compound 2]	990 ± 150 nM
COCCn1sc2ccccc2c1=O [Compound 10]	780 ± 180 nM

Same assay, conditions: M^pro (0.3 µM) incubated 15 min with compound, TSAVLQ/SGFRK-NH2 peptide (4 µM), 10 min reaction; read-out: SPE-MS IC50

Compound	IC50
CC(C)CCn1sc2ccc(Br)cc2c1=O [Compound 4d]	430 ± 10 nM
O=c1c2cccc(-c3ccccc3)c2sn1-c1ccccc1 [Compound 3d]	> 100000 nM
O=c1c2cccc(Br)c2sn1-c1ccccc1 [Compound 3c]	10900 ± 820 nM
O=c1c2ccccc2sn1CC1CCCCC1 [Compound 6]	530 ± 50 nM
CC(C)CCn1sc2c(Br)cccc2c1=O [Compound 4c]	> 100000 nM
O=c1c2ccccc2sn1Cc1ccccc1 [Compound 5]	430 ± 30 nM
Cc1cccc2c(=O)n(-c3ccccc3)sc12 [Compound 3b]	> 100000 nM
O=c1c2ccccc2sn1-c1ccccn1 [Compound 8]	790 ± 90 nM
O=C1C[C@H](Cn2sc3ccccc3c2=O)CN1 [Compound 9]	2550 ± 570 nM
COC(=O)Cn1c(=O)c2ccccc2[s+]1[O-] (stereo not drawn) [Compound 12]	20100 ± 1120 nM
Cc1cccc2c(=O)n(CCC(C)C)sc12 [Compound 4b]	> 100000 nM
CCCCCn1sc2ccccc2c1=O [Compound 7]	470 nM

Same assay, conditions: M^pro (0.3 µM) incubated 15 min with compound, TSAVLQ/SGFRK-NH2 peptide (4 µM), 10 min reaction; read-out: SPE-MS pIC50 (converted)

Compound	IC50
CC(C)CCn1sc2ccc(Br)cc2c1=O [Compound 4d]	339 nM
O=c1c2ccccc2sn1Cc1ccccc1 [Compound 5]	437 nM
O=C1C[C@H](Cn2sc3ccccc3c2=O)CN1 [Compound 9]	2510 nM
CC(C)CCn1sc2ccccc2c1=O [Compound 4a]	417 nM
O=c1c2cnccc2sn1-c1ccccc1 [Compound 3f]	427 nM
COC(=O)CCn1sc2ccccc2c1=O [Compound 11]	389 ± 49.9 nM
O=c1c2cc(Br)ccc2sn1-c1ccccc1 [Compound 3e]	339 ± 19.9 nM

Same assay, conditions: read-out: SPE-MS pIC50 (converted)

Compound	IC50
O=c1c2ccccc2sn1-c1ccccc1 [Compound 3a]	339 ± 69.8 nM

These molecules were tested against T1, SARS-CoV-2 main protease (M^pro) (assay: biochemical). Details: 50 nM M^pro, […] substrate, pH 7.3, 15 min pre-incubation; read-out: FRET IC50.

Compound	IC50
CC(C)CCn1sc2ccc(Br)cc2c1=O [Compound 4d]	~210 nM
O=c1c2ccccc2sn1-c1ccccn1 [Compound 8]	220 ± 100 nM
O=C1C[C@H](Cn2sc3ccccc3c2=O)CN1 [Compound 9]	510 ± 20 nM
COC(=O)Cn1c(=O)c2ccccc2[s+]1[O-] (stereo not drawn) [Compound 12]	2830 ± 340 nM
CC(C)CCn1sc2ccccc2c1=O [Compound 4a]	~320 nM
CCCCCn1sc2ccccc2c1=O [Compound 7]	~410 nM
O=c1c2ccccc2sn1-c1ccccc1 [Compound 3a]	~130 nM

Same assay, conditions: 50 nM M^pro, […] substrate, pH 7.3, 15 min pre-incubation; read-out: FRET pIC50 (converted)

Compound	IC50
CC(C)CCn1sc2ccc(Br)cc2c1=O [Compound 4d]	209 nM
O=c1c2ccccc2sn1CC1CCCCC1 [Compound 6]	933 nM
CC(C)CCn1sc2c(Br)cccc2c1=O [Compound 4c]	93300 nM
O=c1c2ccccc2sn1Cc1ccccc1 [Compound 5]	178 nM
O=c1c2ccccc2sn1-c1ccccn1 [Compound 8]	214 nM
CC(C)CCn1sc2ccccc2c1=O [Compound 4a]	316 nM
COC(=O)CCn1sc2ccccc2c1=O [Compound 11]	245 nM
O=c1c2cc(Br)ccc2sn1-c1ccccc1 [Compound 3e]	30.9 nM
CCCCCn1sc2ccccc2c1=O [Compound 7]	407 nM
O=c1c2ccccc2sn1-c1ccccc1 [Compound 3a]	129 nM

Same assay, conditions: FRET IC50, 50 nM M^pro, […] substrate, pH 7.3, 15 min pre-incubation

Compound	IC50
O=c1[nH]sc2ccccc12 [Compound 2]	1510 ± 90 nM
COCCn1sc2ccccc2c1=O [Compound 10]	950 ± 40 nM

Same assay, conditions: FRET pIC50, 50 nM M^pro, […] substrate, pH 7.3, 15 min pre-incubation

Compound	IC50
COCCn1sc2ccccc2c1=O [Compound 10]	776 nM

Same assay, conditions: ratio of FRET pIC50 to number of reactions observed by MS

Compound	FRET pIC50 / apparent max. no. of reactions
CC(C)CCn1sc2ccc(Br)cc2c1=O [Compound 4d]	3.3
O=c1[nH]sc2ccccc12 [Compound 2]	1.0
COCCn1sc2ccccc2c1=O [Compound 10]	1.2
O=c1c2ccccc2sn1CC1CCCCC1 [Compound 6]	1.0
O=c1c2ccccc2sn1Cc1ccccc1 [Compound 5]	1.1
O=c1c2ccccc2sn1-c1ccccn1 [Compound 8]	1.1
O=C1C[C@H](Cn2sc3ccccc3c2=O)CN1 [Compound 9]	2.1
CC(C)CCn1sc2ccccc2c1=O [Compound 4a]	1.1
O=c1c2cnccc2sn1-c1ccccc1 [Compound 3f]	0.7
COC(=O)CCn1sc2ccccc2c1=O [Compound 11]	1.1
O=c1c2cc(Br)ccc2sn1-c1ccccc1 [Compound 3e]	3.8
CCCCCn1sc2ccccc2c1=O [Compound 7]	1.3
O=c1c2ccccc2sn1-c1ccccc1 [Compound 3a]	0.6
